Experiments:
[1] = tested on: bleomycin-induced skin fibrosis; assay: Bleomycin-induced skin fibrosis (scleroderma) mouse model; assay type: in vivo
Method: Wild type mice were treated with bleomycin ([…]) to induce skin fibrosis or PBS (negative control). Mice were treated with CD109 ([…]), P16 ([…]), or PBS by 100 μL subcutaneous injection every other day for 28 days for a total of 14 injections.
(§1) Mice were injected intradermally with bleomycin (5 mg) in […] PBS or PBS alone every second day for 28 days. Mice were co-injected without or with 1.0 mg recombinant CD109 protein or P16 peptide every second day for 28 days (14 mg total). Skin tissue was harvested and immunohistochemical analysis was performed for the detection of Fibronectin, α-sma, CTGF and Type-1 Collagen. Representative images of sections of skin derived from CD109 and p16 treated mice on day 28 after initial bleomycin or PBS treatment are shown. A total of 4-6 different mice per treatment group were analyzed. Original magnification x 20.
as §1, with “phospho-Smad2, phospho-Smad1” for “Fibronectin, α-sma, CTGF”, “TGF-β levels.” for “Type-1 Collagen.”

[2] = tested on: cancer stem cells (CD133 positive cells), epidermoid A431; assay: Flow cytometry of CD133 positive cells, A431; assay type: cell-based; conditions: 10 nM, 100 pM TGF-b1, 24 hours (FIG. 39)
Method: (§2) A431 cancer cells (8000 cells) were seeded on a BioCoat™ Matrigel® Invasion Chamber and treated with 10 nM of P16.2 (negative peptide control), P16 or PA in the absence or presence of 100 pM TGF-b, followed by 24 hrs of incubation. Invasive cells (in the lower chambers) were stained by crystal violet dye, photographed and counted. Representative photos (A) and statistical plots of invasion (B) are shown. The data are shown as mean±SD of the number of invasive cells for three independent experiments. **P<0.01 and ***P<0.001 as compared with controls. […] Squamous cell carcinoma (epidermoid A431 and head and neck FaDu) cells were stimulated with 100 pM of TGF-b1, then treated with 10 nM of peptide 16.2, P16, PA or CD109 for 24 hours. Cells were analysed by Flow cytometry and CD133 positive cell population, which represent cancer stem cell population, were quantified.

[3] = tested on: cancer stem cells (CD133 positive cells), head and neck FaDu; assay: Flow cytometry of CD133 positive cells, FaDu; assay type: cell-based; conditions: 10 nM, 100 pM TGF-b1, 24 hours (FIG. 39)
Method: as §2

[4] = co-injected with bleomycin every second day for 28 days (FIG. 37)

Recombinant CD109: recombinant CD109 protein
SMAD1 phosphorylation in skin (immunohistochemistry) [1, 4]: enhancing
SMAD2 phosphorylation in skin (immunohistochemistry) [1, 4]: reduces
TGF-β expression in skin (immunohistochemistry) [1, 4]: reduces
extracellular matrix production (Fibronectin, α-sma, CTGF, Type-1 Collagen, immunohistochemistry) ([1]; co-injected with bleomycin every second day for 28 days, skin on day 28 (FIG. 36)): reduces
number of cancer stem cells (CD133 positive cells), A431 [2]: inhibit
number of cancer stem cells (CD133 positive cells), FaDu [3]: inhibit
